Reference: patent US20090304692A1, “TRIAZINE COMPOUNDS AS PI3 KINASE AND MTOR INHIBITORS” (Wyeth, priority 2008, published 2009)
Where “and” joins values, the source holds several entries; their conditions need not be identical. Identical values can stand only once. Like-named read-outs stand apart in the source and are kept apart here.

Key:
PI3K-α = PI3K-α (Homo sapiens, UniProt P42336); assay: PI3K-alpha fluorescence polarization assay
PI3K-γ = PI3K-γ (Homo sapiens, UniProt P48736); assay: PI3K-gamma fluorescence polarization assay
Human mTOR (FLAG-TOR) = Human mTOR (FLAG-TOR) (Homo sapiens, UniProt P42345); assay: mTOR kinase assay (DELFIA format, purified enzyme); format: biochemical; settings: read-out: IC50 mTOR
[1] = test system: human breast MDA-MB-361 tumor cell line; assay: In vitro cell culture growth assay (MTS), MDA-MB-361; format: cell-based; settings: Homo sapiens
[2] = test system: human prostate PC3-mm2 tumor cell line; assay: In vitro cell culture growth assay (MTS), PC3-mm2; format: cell-based; settings: Homo sapiens, PC3MM2, 72 h
[3] = MDA-MB-361, 72 h, MTS cell growth assay, three days after drug treatment, read-out: IC50 MDA-MB-361
[4] = MTS cell growth assay, three days after drug treatment, read-out: IC50 PC3-mm2
[5] = MDA-MB-361, 72 h, MTS cell growth assay, three days after drug treatment, MDA-MB-361 cells, read-out: IC50 MDA-MB-361
[6] = MTS cell growth assay, three days after drug treatment, PC3-mm2 cells, read-out: IC50 PC3-mm2
[7] = 72 h, MTS cell growth assay, three days after drug treatment, MDA-MB-361 cells, read-out: IC50 MDA-MB-361
[8] = MDA-MB-361, 72 h, read-out: IC50 MDA-MB-361, MTS cell growth assay, three days after drug treatment
[9] = read-out: IC50 PC3-mm2, MTS cell growth assay, three days after drug treatment

Sequence of Human mTOR (FLAG-TOR) (P42345 1360-2549 limits assumed): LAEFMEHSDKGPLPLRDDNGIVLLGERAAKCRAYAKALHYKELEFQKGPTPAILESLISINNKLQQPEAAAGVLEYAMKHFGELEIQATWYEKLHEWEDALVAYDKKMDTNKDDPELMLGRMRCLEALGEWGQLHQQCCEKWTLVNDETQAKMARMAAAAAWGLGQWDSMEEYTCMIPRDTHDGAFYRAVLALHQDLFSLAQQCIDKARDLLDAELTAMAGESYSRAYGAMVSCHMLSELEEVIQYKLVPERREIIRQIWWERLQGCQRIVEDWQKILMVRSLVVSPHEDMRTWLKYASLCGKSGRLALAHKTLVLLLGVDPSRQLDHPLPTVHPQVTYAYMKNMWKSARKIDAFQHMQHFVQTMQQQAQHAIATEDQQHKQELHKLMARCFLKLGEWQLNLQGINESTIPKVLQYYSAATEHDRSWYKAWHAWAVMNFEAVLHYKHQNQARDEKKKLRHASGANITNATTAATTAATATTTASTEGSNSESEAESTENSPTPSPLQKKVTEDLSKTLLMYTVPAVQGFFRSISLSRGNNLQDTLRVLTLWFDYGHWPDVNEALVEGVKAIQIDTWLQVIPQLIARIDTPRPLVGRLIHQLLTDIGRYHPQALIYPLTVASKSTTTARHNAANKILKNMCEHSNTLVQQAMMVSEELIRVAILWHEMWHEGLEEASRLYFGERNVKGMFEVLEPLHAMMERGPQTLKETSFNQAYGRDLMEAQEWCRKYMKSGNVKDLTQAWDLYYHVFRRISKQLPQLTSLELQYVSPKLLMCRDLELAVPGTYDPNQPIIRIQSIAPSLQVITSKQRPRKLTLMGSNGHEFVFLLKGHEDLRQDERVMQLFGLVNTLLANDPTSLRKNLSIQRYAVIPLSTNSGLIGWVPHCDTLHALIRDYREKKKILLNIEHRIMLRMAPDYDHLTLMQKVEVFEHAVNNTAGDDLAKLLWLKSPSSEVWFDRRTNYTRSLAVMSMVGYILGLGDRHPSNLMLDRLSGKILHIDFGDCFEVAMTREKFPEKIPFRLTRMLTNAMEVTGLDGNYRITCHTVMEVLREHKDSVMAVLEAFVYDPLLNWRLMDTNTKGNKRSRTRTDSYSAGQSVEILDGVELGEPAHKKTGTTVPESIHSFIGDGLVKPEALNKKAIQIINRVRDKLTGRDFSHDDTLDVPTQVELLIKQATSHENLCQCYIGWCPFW
Sequence of PI3K-γ (P48736 whole entry, species assumed): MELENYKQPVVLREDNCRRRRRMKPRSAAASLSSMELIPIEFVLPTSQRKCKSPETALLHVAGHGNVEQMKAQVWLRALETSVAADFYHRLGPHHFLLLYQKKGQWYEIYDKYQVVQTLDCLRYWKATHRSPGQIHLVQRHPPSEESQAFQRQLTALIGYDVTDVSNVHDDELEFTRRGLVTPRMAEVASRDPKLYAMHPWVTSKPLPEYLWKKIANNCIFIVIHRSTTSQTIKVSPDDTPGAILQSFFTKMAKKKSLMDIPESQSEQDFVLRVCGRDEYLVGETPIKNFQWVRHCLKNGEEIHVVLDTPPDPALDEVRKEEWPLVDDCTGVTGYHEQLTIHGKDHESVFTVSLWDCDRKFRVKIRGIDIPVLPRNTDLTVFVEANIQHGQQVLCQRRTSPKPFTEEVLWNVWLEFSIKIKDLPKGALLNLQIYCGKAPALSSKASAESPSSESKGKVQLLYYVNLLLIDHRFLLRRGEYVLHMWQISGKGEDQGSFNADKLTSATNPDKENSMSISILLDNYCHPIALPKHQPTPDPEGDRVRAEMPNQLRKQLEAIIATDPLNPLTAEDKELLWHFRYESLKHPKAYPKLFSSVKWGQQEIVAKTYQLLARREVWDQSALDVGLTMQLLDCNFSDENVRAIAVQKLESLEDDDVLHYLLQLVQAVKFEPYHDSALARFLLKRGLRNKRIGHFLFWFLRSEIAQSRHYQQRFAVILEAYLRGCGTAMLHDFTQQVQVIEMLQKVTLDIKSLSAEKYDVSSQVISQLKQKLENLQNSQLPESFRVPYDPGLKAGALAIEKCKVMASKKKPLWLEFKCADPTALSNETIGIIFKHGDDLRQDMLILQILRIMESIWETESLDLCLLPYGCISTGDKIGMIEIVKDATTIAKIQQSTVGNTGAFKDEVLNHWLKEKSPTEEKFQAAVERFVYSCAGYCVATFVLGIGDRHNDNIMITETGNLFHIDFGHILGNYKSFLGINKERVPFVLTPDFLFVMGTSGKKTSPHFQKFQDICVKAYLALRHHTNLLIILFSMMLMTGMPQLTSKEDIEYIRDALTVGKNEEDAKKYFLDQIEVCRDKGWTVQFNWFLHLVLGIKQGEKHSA
Sequence of PI3K-α (P42336 whole entry, species assumed): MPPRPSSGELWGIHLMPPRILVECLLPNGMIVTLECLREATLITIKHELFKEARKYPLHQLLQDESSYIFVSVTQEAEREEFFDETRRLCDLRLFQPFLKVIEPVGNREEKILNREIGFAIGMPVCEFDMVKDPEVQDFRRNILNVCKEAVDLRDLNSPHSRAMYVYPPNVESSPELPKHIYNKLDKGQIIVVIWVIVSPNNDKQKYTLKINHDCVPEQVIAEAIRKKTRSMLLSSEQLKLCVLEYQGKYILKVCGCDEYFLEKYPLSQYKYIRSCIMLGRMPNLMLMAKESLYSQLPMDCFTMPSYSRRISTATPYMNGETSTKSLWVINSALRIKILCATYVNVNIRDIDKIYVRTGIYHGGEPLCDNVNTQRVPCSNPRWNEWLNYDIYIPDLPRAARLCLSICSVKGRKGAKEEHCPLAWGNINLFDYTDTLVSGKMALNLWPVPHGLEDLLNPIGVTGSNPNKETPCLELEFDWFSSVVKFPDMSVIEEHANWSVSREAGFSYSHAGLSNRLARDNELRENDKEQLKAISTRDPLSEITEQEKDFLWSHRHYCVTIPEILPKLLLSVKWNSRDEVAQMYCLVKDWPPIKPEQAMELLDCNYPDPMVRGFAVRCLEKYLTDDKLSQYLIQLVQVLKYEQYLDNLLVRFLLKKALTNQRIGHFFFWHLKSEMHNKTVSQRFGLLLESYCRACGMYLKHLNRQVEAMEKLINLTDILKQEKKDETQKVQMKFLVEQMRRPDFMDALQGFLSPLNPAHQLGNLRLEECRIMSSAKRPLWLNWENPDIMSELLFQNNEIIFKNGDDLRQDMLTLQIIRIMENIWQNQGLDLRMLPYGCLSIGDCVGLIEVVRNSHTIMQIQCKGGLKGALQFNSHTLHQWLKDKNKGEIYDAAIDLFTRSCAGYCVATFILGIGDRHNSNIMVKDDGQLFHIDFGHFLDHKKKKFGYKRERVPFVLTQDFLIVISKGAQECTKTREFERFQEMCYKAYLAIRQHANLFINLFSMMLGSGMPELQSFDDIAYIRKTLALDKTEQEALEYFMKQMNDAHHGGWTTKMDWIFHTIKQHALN
Sequence of PI3K-α (P27986 whole entry partner, species assumed): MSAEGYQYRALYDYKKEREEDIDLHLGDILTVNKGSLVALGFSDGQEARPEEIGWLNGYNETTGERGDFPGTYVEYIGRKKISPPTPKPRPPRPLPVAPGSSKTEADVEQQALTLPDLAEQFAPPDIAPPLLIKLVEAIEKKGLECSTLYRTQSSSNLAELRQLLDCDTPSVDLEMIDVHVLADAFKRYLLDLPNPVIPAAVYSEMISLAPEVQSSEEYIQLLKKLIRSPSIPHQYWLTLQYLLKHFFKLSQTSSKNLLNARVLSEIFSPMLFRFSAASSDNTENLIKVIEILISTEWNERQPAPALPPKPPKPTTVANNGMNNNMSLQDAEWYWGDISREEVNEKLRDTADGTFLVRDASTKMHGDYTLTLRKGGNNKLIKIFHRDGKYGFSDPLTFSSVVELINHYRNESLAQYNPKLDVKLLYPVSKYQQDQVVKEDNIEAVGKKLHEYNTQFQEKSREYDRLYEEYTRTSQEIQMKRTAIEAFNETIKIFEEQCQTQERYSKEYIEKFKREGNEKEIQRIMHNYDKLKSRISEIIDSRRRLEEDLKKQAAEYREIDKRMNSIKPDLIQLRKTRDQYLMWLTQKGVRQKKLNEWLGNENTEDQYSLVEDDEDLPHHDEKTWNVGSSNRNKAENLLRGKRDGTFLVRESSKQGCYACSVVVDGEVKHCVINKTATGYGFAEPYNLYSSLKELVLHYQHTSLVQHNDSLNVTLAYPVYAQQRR

SMILES	IC50 (PI3K-α; read-out: IC50 PI3Kα)	IC50 (PI3K-γ; read-out: IC50 PI3Kγ)	IC50 (Human mTOR (FLAG-TOR))	IC50 [1, 3]	IC50 [2, 4]	IC50 [1, 5]	IC50 [2, 6]	further results
O=C(Nc1ccccc1)Nc1ccc(-c2nc(N3CCOCC3)nc(N3CCOCC3)n2)cc1 [Example 3, 1-[4-(4,6-dimorpholin-4-yl-1,3,5-triazin-2-yl)phenyl]-3-phenylurea]	3 nM	27 nM	3.85 nM	45 nM	43 nM			
CC(C)Oc1nc(-c2ccc(NC(=O)Nc3ccncc3)cc2)nc(N2CCOCC2)n1 [Example 94, 1-[4-(4-isopropoxy-6-morpholin-4-yl-1,3,5-triazin-2-yl)phenyl]-3-pyridin-4-ylurea]	5 nM	56 nM	1 nM	54 nM	82 nM			
CN(C)C(=O)Nc1ccc(NC(=O)Nc2ccc(-c3nc(N4CCOCC4)nc(N4CCOCC4)n3)cc2)cc1 [Example 504, 1-{4-[(dimethylcarbamoyl)amino]phenyl}-3-[4-(4,6-dimorpholin-4-yl-1,3,5-triazin-2-yl)phenyl]urea]	1.8 nM	10 nM	1.35 nM			22.5 nM	25.5 nM	
CC(C)c1nc(-c2ccc(NC(=O)Nc3ccc(C(=O)O)cc3)cc2)nc(N2CCOCC2)n1 [Example 301, 4-[({4-[4-(1-methylethyl)-6-morpholin-4-yl-1,3,5-triazin-2-yl]phenyl}carbamoyl)amino]benzoic acid]	21 nM	58 nM	0.8 nM	430 nM	759 nM			
CCCN(CCC)C1CCN(C(=O)c2ccc(NC(=O)Nc3ccc(-c4nc(N5CCOC[C@@H]5C)nc(N5CCOC[C@@H]5C)n4)cc3)cc2)CC1 [Example 624, 1-(4-{4,6-bis[(3S)-3-methylmorpholin-4-yl]-1,3,5-triazin-2-yl}phenyl)-3-(4-{[4-(dipropylamino)piperidin-1-yl]carbonyl}phenyl)urea]	17.5 nM	58.5 nM	1 nM			4 nM	19 nM	
OCc1cccc(-c2nc(N3CCOCC3)nc(N3C4CCC3COC4)n2)c1 [Example 682, {3-[4-morpholin-4-yl-6-(3-oxa-8-azabicyclo[3.2.1]oct-8-yl)-1,3,5-triazin-2-yl]phenyl}methanol]	84.3 nM	1280 nM	88.5 nM				766 nM	IC50 [1, 7]: 1040 nM
CN1C2CCC1CC(Oc1nc(-c3ccc(NC(=O)Nc4ccncc4)cc3)nc(N3CCOCC3)n1)C2 (centres unmarked) [Example 102, 1-{4-[4-(8-methyl-8-aza-bicyclo[3.2.1]oct-3-yloxy)-6-morpholin-4-yl-[1,3,5]triazin-2-yl]-phenyl}-3-pyridin-4-yl-urea]	6 nM	84 nM	6.1 nM	592 nM	854 nM			
C[C@H]1COCCN1c1nc(-c2ccc(NC(=O)Nc3ccncc3)cc2)nc(N2CCOC[C@@H]2C)n1 [Example 609, 1-(4-{4,6-bis[(3S)-3-methylmorpholin-4-yl]-1,3,5-triazin-2-yl}phenyl)-3-pyridin-4-ylurea]			3 nM			24 nM	26 nM	IC50 (PI3K-α): 11.5 nM; IC50 (PI3K-γ): 93.5 nM
Cc1ccc(NC(=O)Nc2ccc(-c3nc(N4CCOCC4)nc(N4C5CCC4COC5)n3)cc2)cc1 [Example 41, 1-(4-methylphenyl)-3-{4-[4-morpholin-4-yl-6-(3-oxa-8-azabicyclo[3.2.1]oct-8-yl)-1,3,5-triazin-2-yl]phenyl}urea]	69 nM	122 nM	1.3 nM	167 nM	301 nM	167 nM	301 nM	IC50 (PI3K-α; read-out: IC50 PI3Kα, listed as 676): 69.5 nM
O=C(Nc1ccc(C(=O)O)cc1)Nc1ccc(-c2nc(N3CCOCC3)nc(N3CCOCC3)n2)cc1 [Example 67, 4-[3-{4-(4,6-dimorpholino-1,3,5-triazin-2-yl)phenyl}ureido]benzoic acid]	6 nM	48 nM	1.45 nM					IC50 [1, 8]: 816 nM; IC50 [2, 9]: 28 nM
CC(C)c1nc(-c2ccc(NC(=O)Nc3ccc(-c4cncnc4)cc3)cc2)nc(N2CCOCC2)n1 [Example 487, 1-{4-[4-(1-methylethyl)-6-morpholin-4-yl-1,3,5-triazin-2-yl]phenyl}-3-(4-pyrimidin-5-ylphenyl)urea]	32.3 nM	27 nM	1.8 nM				339 nM	IC50 [1, 7]: 175 nM
O=C(Nc1ccc(CCO)cc1)Nc1ccc(-c2nc(N3CCOCC3)nc(N3CCOCC3)n2)cc1 [Example 50, 1-[4-(4,6-dimorpholin-4-yl-1,3,5-triazin-2-yl)phenyl]-3-[4-(2-hydroxyethyl)phenyl]urea]	1 nM	21 nM	2 nM					IC50 [1, 8]: 36 nM; IC50 [2, 9]: 39 nM
CC(C)(C)OC(=O)N1CC(Nc2nc(-c3ccc(NC(=O)Nc4ccc(F)cc4)cc3)nc(N3CCOCC3)n2)C1 [Example 13, tert-butyl 3-{[4-(4-{[(4-fluorophenyl)carbamoyl]-amino}phenyl)-6-morpholin-4-yl-1,3,5-triazin-2-yl]amino}azetidine-1-carboxylate]	51 nM	879 nM	11.5 nM	603 nM	845 nM			
CN1CCN(C(=O)c2ccc(NC(=O)Nc3ccc(-c4nc(N5CCOCC5)nc(N5C6CCCC5COC6)n4)cc3)cc2)CC1 [Example 792, 1-{4-[(4-methylpiperazin-1-yl)carbonyl]phenyl}-3-{4-[4-morpholin-4-yl-6-(3-oxa-9-azabicyclo[3.3.1]non-9-yl)-1,3,5-triazin-2-yl]phenyl}urea]	3.3 nM	35.5 nM	0.81 nM			2 nM	16 nM	
CCc1nc(-c2ccc(NC(=O)Nc3ccc(N4CCN(C)CC4)cc3)cc2)nc(N2CCOCC2)n1 [Example 296, 1-[4-(4-ethyl-6-morpholin-4-yl-1,3,5-triazin-2-yl)phenyl]-3-[4-(4-methylpiperazin-1-yl)phenyl]urea]	13 nM	35 nM	21 nM	83 nM	133 nM			
O=C(Nc1ccc(F)cc1)Nc1ccc(-c2nc(NC3CNC3)nc(N3CCOCC3)n2)cc1 [Example 19, 1-{4-[4-(azetidin-3-ylamino)-6-morpholin-4-yl-1,3,5-triazin-2-yl]phenyl}-3-(4-fluorophenyl)urea]	23 nM	206 nM	39 nM	1030 nM	1600 nM			
CN1CCN(C(=O)c2ccc(NC(=O)Nc3ccc(-c4nc(N5CCCCC5)nc(N5CCOCC5)n4)cc3)cc2)CC1 [Example 597, 1-{4-[(4-methylpiperazin-1-yl)carbonyl]phenyl}-3-[4-(4-morpholin-4-yl-6-piperidin-1-yl-1,3,5-triazin-2-yl)phenyl]urea]	5 nM	58 nM	11 nM			45 nM	229 nM	
CC(=O)c1ccc(NC(=O)Nc2ccc(-c3nc(N4CCOCC4)nc(N4C5CCC4COC5)n3)cc2)cc1 [Example 230, 1-(4-acetylphenyl)-3-{4-[4-morpholin-4-yl-6-(3-oxa-8-azabicyclo[3.2.1]oct-8-yl)-1,3,5-triazin-2-yl]phenyl}urea]	22 nM	119 nM	1.2 nM and 0.15 nM			< 31 nM	< 31 nM	IC50 (PI3K-α; read-out: IC50 PI3Kα, listed as 719): 17.5 nM; IC50 (PI3K-γ; read-out: IC50 PI3Kγ, listed as 719): 96 nM
O=C(Nc1ccncc1)Nc1ccc(-c2nc(NCC3CNC3)nc(N3CCOCC3)n2)cc1 [Example 105, 1-(4-{4-[(azetidin-3-ylmethyl)-amino]-6-morpholin-4-yl-[1,3,5]triazin-2-yl}-phenyl)-3-pyridin-4-yl-urea]	14 nM	112 nM	30.5 nM	3710 nM	> 10000 nM			
CCN1CCN(C(=O)c2ccc(NC(=O)Nc3ccc(-c4nc(N5CCOCC5)nc(N5C6COCC5COC6)n4)cc3)cc2)CC1 [Example 806, 1-{4-[4-(3,7-dioxa-9-azabicyclo[3.3.1]non-9-yl)-6-morpholin-4-yl-1,3,5-triazin-2-yl]phenyl}-3-{4-[(4-ethylpiperazin-1-yl)carbonyl]phenyl}urea]	4.5 nM	47 nM	0.24 nM					IC50 ([1]; MDA-MB-361, 72 h, MDA-MB-361 cells, MTS, three days after drug treatment, read-out: IC50 MDA-MB-361): < 3.2 nM; IC50 ([2]; PC3-mm2 cells, MTS, three days after drug treatment, read-out: IC50 PC3-mm2): 9 nM
CN(C)C(=O)c1ccc(NC(=O)Nc2ccc(-c3nc(N4CCOCC4)nc(N4C5CCC4COC5)n3)cc2)cc1 [Example 695, N,N-dimethyl-4-[({4-[4-morpholin-4-yl-6-(3-oxa-8-azabicyclo[3.2.1]oct-8-yl)-1,3,5-triazin-2-yl]phenyl}carbamoyl)amino]benzamide]	4 nM	70.5 nM	0.28 nM				7 nM	IC50 [1, 7]: 6 nM
